In patent US5935997A, “O-thiocarbamoyl-aminoalkanol compounds, their pharmaceutically useful salts and process for preparing the same” (Yukong Limited, priority 1998, dated 1999):

Legend:
[1] = tested on: mice (CD-1 strain); assay: Forced Swimming Test (antidepressant; reduction of immobility); type: in vivo; settings: one hour prior to immersion, immobility in 15 min
Description: The therapeutic use of the compounds claimed in the present invention as antidepressants has been proven by the "Forced Swinuning Test", a well known pharmacological screening methods for depression and the results are shown in the following Table II. The procedure described by Porsolt et al., […] was used. Test compound was administered p.o. and i.p. to mice (CD-1 strain), one hour prior to the animals being immersed in a 1500 mL glass beaker (16.5 cm deep, 13.0 cm diameter) filled with water (20~23° C.) to about 5 cm from the top. Mice were kept in the water for a period of 15 minutes and the duration of immobility observed within the 15-minute test period was recorded. A mouse was judged to be immobile if it floated motionlessly in the water making only those movements necessary to keep its head above the water.

[2] = tested on: mice (CD-1strain); assay: Maximal ElectroShock (MES) test (anticonvulsant); type: in vivo; settings: for MES (animals protected/tested): 30 mg/kg; for ED50: Mus musculus

NC(=S)OC[C@@H](N)Cc1ccccc1
Inhibition (reduction, %) ([1]; i.p. (30 mg/kg)): 51.2%

NC(=S)OCC(N)Cc1ccc(Cl)cc1 (stereo not drawn)
Inhibition (reduction, %) ([1]; i.p. (30 mg/kg)): 30.6%
Inhibition (reduction, %) ([1]; p.o. (30 mg/kg)): 38.1%

CNC(=S)OC[C@H](N)Cc1ccccc1
MES (animals protected/tested) ([2]; po, 0.5 h): 3/3

CN(C)C(=S)OC[C@H](N)Cc1ccc(Cl)c(Cl)c1
MES (animals protected/tested) ([2]; ip, 4.0 h): 1/3

NC(=S)OC[C@H](N)Cc1ccccc1 [drawing 22]
Inhibition (reduction, %) ([1]; i.p. (30 mg/kg)): 41.6%

CNC(=S)OCC(Cc1ccccc1)N(C)C (stereo not drawn) [drawing 26]
Inhibition (reduction, %) ([1]; i.p. (30 mg/kg)): 31.4%
Inhibition (reduction, %) ([1]; p.o. (30 mg/kg)): 23.4%

NC(=S)OC[C@H](N)Cc1ccccc1 [drawing 29]
ED50 ([2]; ip, 0.5 h): 29 mg/kg
ED50 ([2]; po, 0.5 h): 189 mg/kg

CNC(=S)OCC(Cc1ccccc1)N(C)C (stereo not drawn) [drawing 33]
ED50 ([2]; ip, 1 h): 31.5 mg/kg
ED50 ([2]; po, 0.5 h): 82.5 mg/kg
